In paper PMC7032255 (Asian Journal of Pharmaceutical Sciences, 2018):
“Also recorded” adds a separate entry of the source. Read-outs that look alike come from different tables or passages of the source.

Experiments:
[1] = cited from earlier work; for oral bioavailability of cytarabine: cytarabine versus its L-valyl prodrug valcytarabine
[2] = in human; parent drug versus its prodrug LY2140023; cited from earlier work
hPEPT1 = biological target: T1, hPEPT1 (Homo sapiens, UniProt P46059); experiment: Uptake by MDCK-hPEPT1 cells versus MDCK mock cells; format: cell-based; conditions: Fig. 6A
T1 sequence (P46059 1-708): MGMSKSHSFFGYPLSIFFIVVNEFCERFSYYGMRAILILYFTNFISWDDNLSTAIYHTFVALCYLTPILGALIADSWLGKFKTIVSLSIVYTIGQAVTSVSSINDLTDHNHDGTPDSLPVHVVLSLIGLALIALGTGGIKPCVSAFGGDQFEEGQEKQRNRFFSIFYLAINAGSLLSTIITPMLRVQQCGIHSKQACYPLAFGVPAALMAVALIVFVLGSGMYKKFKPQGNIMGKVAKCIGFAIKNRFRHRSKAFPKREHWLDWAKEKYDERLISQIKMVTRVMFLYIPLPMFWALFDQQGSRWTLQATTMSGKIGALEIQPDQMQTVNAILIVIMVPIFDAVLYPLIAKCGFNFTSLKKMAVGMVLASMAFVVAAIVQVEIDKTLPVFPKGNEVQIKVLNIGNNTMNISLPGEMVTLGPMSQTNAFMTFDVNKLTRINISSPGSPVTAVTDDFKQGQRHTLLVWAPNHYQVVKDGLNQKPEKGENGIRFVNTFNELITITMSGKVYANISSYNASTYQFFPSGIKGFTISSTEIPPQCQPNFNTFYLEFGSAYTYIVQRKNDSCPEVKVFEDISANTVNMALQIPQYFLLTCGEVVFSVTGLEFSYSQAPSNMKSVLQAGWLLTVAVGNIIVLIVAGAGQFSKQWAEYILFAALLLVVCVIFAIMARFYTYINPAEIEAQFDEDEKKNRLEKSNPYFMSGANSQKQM

[3] = background value, no reference given; cited from earlier work
[4] = rat plasma, intravenous injection 8 mg/kg
[5] = rat plasma, oral administration, 160 mg/kg calculated as peramivir

Nc1ccn([C@@H]2O[C@H](CO)[C@@H](O)[C@@H]2O)c(=O)n1 [cytarabine]
oral bioavailability of cytarabine [1]: 21.8%

CC(C)C(N)C(=O)OCC1OC(n2ccc(N)nc2=O)C(O)C1O (centres unmarked) [valcytarabine]
oral bioavailability of cytarabine [1]: 60.0%

CSCC[C@H](N)C(=O)N[C@@]1(C(=O)O)CS(=O)(=O)[C@H]2[C@H](C(=O)O)[C@H]21 [LY2140023]
oral bioavailability of the parent drug LY404039 [2]: 68.0%

CCC(CC)[C@H](NC(C)=O)[C@@H]1[C@H](O)[C@@H](C(=O)O)C[C@H]1N=C(N)N [Peramivir]
PEPT1-mediated transport (uptake in MDCK-hPEPT1 versus mock cells) (hPEPT1): no PEPT1-mediated transport; also recorded: not (statistically) significant different between MDCK-hPEPT1 and MDCK mock cells | AUC0-∞ of peramivir [4]: 3604.8 ng·h/mL | t1/2 of peramivir [4]: 3.9 h | AUC0-∞ of peramivir [5]: 2955.9 ng·h/mL | Cmax of peramivir [5]: 771.6 ± 278.3 ng/mL | Tmax of peramivir [5]: 1.0 h | t1/2 of peramivir [5]: 3.2 h | F, absolute oral bioavailability of peramivir (rat, oral 160 mg/kg calculated as peramivir versus i.v. peramivir 8 mg/kg): 4.1% | oral bioavailability ([1]; peramivir given orally, background value, reference not given): 3% | log P [3]: −1.4

N[C@@]1(C(=O)O)CS(=O)(=O)[C@H]2[C@H](C(=O)O)[C@H]21 [LY404039]
oral bioavailability of the parent drug LY404039 [2]: 6.0%
